# Data published in patent US7423177B2, “Carboxamide derivatives as therapeutic agents” (TransTech Pharma, Inc., priority 2001, dated 2008).
# Legend:
# [1] = biological target: T1, RAGE (sRAGE) binding to Carboxymethyl Lysine (CML) (Homo sapiens, UniProt Q15109); test: ELISA assay: inhibition of sRAGE binding to plate-bound CML; conditions: ligand CML coated on plate, concentration at which 50% signal has been inhibited
# T1 construct: extracellular domain can be isolated by proteolysis of RAGE to generate soluble RAGE (sRAGE) comprised of the V and C domains
# Experimental: (§1) This method is also described and claimed in co-pending U.S. Ser. No. 09/799,152 filed Mar. 5, 2001.
# (§2) S100b, β-amyloid and CML (500 ng/100 μL/well) in 100 mM sodium bicarbonate/sodium carbonate buffer (pH 9.8) is loaded onto the wells of a NUNC Maxisorp flat bottom 96 -well microtitre plate. The plate is incubated at 4° C. overnight. The wells are aspirated and treated with 50 mM imidazole buffer saline (pH 7.2) (with 1 mM CaCl2/MgCl2) containing 1% bovine serum albumin (BSA) (300 μL/well) for two h at 37° C.
# (§3) Test compounds are dissolved in nanopure water (concentration: 10-100 μM). DMSO may be used as co-solvent. 25 μL of test compound solution in 2% DMSO is added, along with 75 μL SRAGE (4.0×10^−4 mg/mL FAC) to each well and samples are incubated for 1 h at 37° C. The wells are washed 3 times with 155 mM NaCl pH 7.2 buffer saline and are soaked 10 seconds between each wash.
# (§4) Non-Radioactive Binding is Performed by Adding:
# (§5) 10 μL Biotinylated goat F(ab′)2 Anti-mouse IgG. (8.0×10^−4 mg/mL, FAC)
# (§6) 10 μL Alk-phos-Sterptavidin (3×10^−3 mg/mL FAC)
# (§7) 10 μL Polyclonal antibody for sRAGE (FAC 6.0×10^−3 mg/mL)
# (§8) to 5 mL 50 mM imidazole buffer saline (pH 7.2) containing 0.2% bovine serum albumin and 1 mM […]. The mixture is incubated for 30 minutes at 37° C. 100 μL complex is added to each well and incubation is allowed to proceed at rt for 1 h. Wells are washed 3 times with wash buffer and soaked 10 s between each wash. 100 μL 1 mg/mL (pNPP) in 1 M diethanolamine (pH adjusted to 9.8 with HCl) is added. Color is allowed to develop in the dark for 1 to 2 h at rt. The reaction is quenched with 10 μL of stop solution (0.5 N NaOH in 50% ethanol) and the absorbance is measured spectrophotometrically with a microplate reader at 405 nm.
# [2] = biological target: T2, RAGE (sRAGE) binding to S100b (Homo sapiens, UniProt Q15109); test: ELISA assay: inhibition of sRAGE binding to plate-bound S100b; conditions: ligand S100b coated on plate, concentration at which 50% signal has been inhibited, read-out: ELISA Assay IC50 (μM) S-100b
# T2 construct: extracellular domain can be isolated by proteolysis of RAGE to generate soluble RAGE (sRAGE) comprised of the V and C domains
# Experimental: as §1, §2, §3, §4, §5, §6, §7, §8
# [3] = biological target: T3, RAGE (sRAGE) binding to β-amyloid (Homo sapiens, UniProt Q15109); test: ELISA assay: inhibition of sRAGE binding to plate-bound β-amyloid; conditions: ligand β-amyloid coated on plate, concentration at which 50% signal has been inhibited
# T3 construct: extracellular domain can be isolated by proteolysis of RAGE to generate soluble RAGE (sRAGE) comprised of the V and C domains
# Experimental: as §1, §2, §3, §4, §5, §6, §7, §8
# T3 sequence (Q15109 23-342 limits assumed): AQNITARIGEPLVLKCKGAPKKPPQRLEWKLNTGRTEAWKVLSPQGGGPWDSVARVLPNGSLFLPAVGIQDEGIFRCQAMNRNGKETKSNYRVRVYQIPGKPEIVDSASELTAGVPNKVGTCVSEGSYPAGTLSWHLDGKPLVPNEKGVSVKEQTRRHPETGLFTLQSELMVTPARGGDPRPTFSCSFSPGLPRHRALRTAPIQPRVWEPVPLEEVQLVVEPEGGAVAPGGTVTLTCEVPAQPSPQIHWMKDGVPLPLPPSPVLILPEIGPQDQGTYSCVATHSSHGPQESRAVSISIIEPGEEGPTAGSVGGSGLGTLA
# T1 sequence (Q15109 23-342 limits assumed): as above
# T2 sequence (Q15109 23-342 limits assumed): as above
SMILES,IC50 [1] [µM],IC50 [2] [µM],IC50 [3] [µM]
"CCCCN(C(=O)[C@H](N)Cc1ccc(OCc2ccccc2)cc1)c1cccc(OCCCN(CC)CC)c1 [Example 21, (2R)-2-amino-3-[4-(benzyloxy)phenyl]propionic Acid 3-(3-diethylaminopropoxy)-N-butylaniline Amide]",1 to 5,1 to 5,1 to 5
"CCCCOc1cc(OCCCN(CC)CC)ccc1NC(=O)C(CC1CCN(C(=O)c2ccccc2)CC1)NC(=O)c1ccccc1 (stereo not drawn) [Example 28, 3-(1-Benzoylpiperidin-4-yl)-2-benzoylaminopropionic Acid 4-Diethylaminopropoxy-2-butoxyaniline Amide]",1 to 5,5 to 10,5 to 10
"CCN(CC)CCCOc1ccc(NC(=O)CC(N)c2ccc(OC(C)(C)C)cc2)c(OCCCN(CC)CC)c1 (stereo not drawn) [Example 9, 3-amino-3-(4-tert-butoxyphenyl)propionic Acid 2,4-Di-(3-diethylaminopropoxy)anline Amide]",1 to 5,1 to 5,1 to 5
"CCCCN(C(=O)[C@@H](Cc1ccc(OCc2ccccc2)cc1)NC(=O)OC(C)(C)C)c1ccc(OCCCN(CC)CC)cc1 [Example 18, (2R)-2-tert-butoxycarbonylamino-3-[4-(benzyloxy)phenyl]propionic Acid 4-(3-diethylaminopropoxy)-N-butylaniline Amide]",1 to 5,1 to 5,1 to 5
"CCCCOc1cc(OCCCN(CC)CC)ccc1NC(=O)C(CC1CCCNC1)NC(=O)OCC1c2ccccc2-c2ccccc21 (stereo not drawn) [Example 30, 3-(Piperidin-3-yl)-2-(9-fluorenylmethoxycarbonylamino)propionic Acid 4-Diethylaminopropoxy-2-butoxyaniline Amide]",0.5 to 1,0.5 to 1,0.5 to 1
"CCN(CC)CCCOc1ccc(N(CC2CCCC2)C(=O)[C@@H](Cc2ccc(OCc3ccccc3)cc2)NC(=O)OC(C)(C)C)cc1 [Example 14, (2R)-2-tert-butoxycarbonylamino-3-[4-(benzyloxy)phenyl]propionic Acid 4-(3-diethylaminopropoxy)-N-cyclopentylmethylaniline Amide]",1 to 5,1 to 5,1 to 5
"CCCCN(C(=O)[C@H](N)Cc1ccc(OCc2ccccc2)cc1)c1ccc(OCCCN(CC)CC)cc1 [Example 19, (2R)-2-amino-3-[4-(benzyloxy)phenyl]propionic Acid 4-(3-diethylaminopropoxy)-N-butylaniline Amide]",1 to 5,1 to 5,1 to 5
"CCCCOc1cc(C(=O)OCCN(CC)CC)ccc1NC(=O)[C@@H](Cc1ccc(OCc2ccccc2)cc1)n1ccnc1 [Example 7, (R)-3-(4-Benzyloxyphenyl)-2-(1-imidazolyl)propionic Acid 4-Diethylaminoethoxycarbonyl-2-butoxyaniline Amide]",1 to 5,0.5 to 1,1 to 5
"CCCCN(C(=O)[C@@H](Cc1ccc(OCc2ccccc2)cc1)NC(=O)OC(C)(C)C)c1cccc(OCCCN(CC)CC)c1 [Example 20, (2R)-2-tert-butoxycarbonylamino-3-[4-(benzyloxy)phenyl]propionic Acid 3-(3-diethylaminopropoxy)-N-butylaniline Amide]",1 to 5,1 to 5,1 to 5
"CCCCOc1cc(OCCCN(CC)CC)ccc1NC(=O)C(CC1CCN(C(=O)c2ccccc2)CC1)NC(=O)OCC1c2ccccc2-c2ccccc21 (stereo not drawn) [Example 27, 3-(1 -Benzoylpiperidin-4-yl)-2-(9-fluorenylmethoxycarbonylamino)propionic Acid 4-Diethylaminopropoxy-2-butoxyaniline Amide]",1 to 5,1 to 5,1 to 5
